Data on one compound can be found in ChEMBL document CHEMBL4354828, “Discovery of Taniborbactam (VNRX-5133): A Broad-Spectrum Serine- and Metallo-β-lactamase Inhibitor for Carbapenem-Resistant Bacterial Infections” (J Med Chem, 2020).

The structures appear in SMILES notation. pIC50: −log10 of the molar value. Converted amounts (≈) assume the structure as drawn.

The test system of data set [1] is Klebsiella pneumoniae. The experiment in a line: Effect on growth of Klebsiella pneumoniae UMM expressing SHV5/KPC-2/TEM-1 after 16 to 20 hrs by CLSI-based microbroth dilution method. The format is organism-based. The following applies: in vivo. A general note: In broth dilution the organism is exposed to a series of concentrations in liquid medium.
In data set [2] the test system is Escherichia coli. The experiment in a line: Antibacterial activity against Escherichia coli UNT057-1 expressing CTX-M-15 infected in C3H/Hej mouse assessed as log reduction in viable bacterial counts in kidney at 8 mg/kg, sc bid co-treated with 16 mg/kg of cefepime and measured after 7 days (reference value: 7.25 +/- 0.16). In kind it is functional.
The test system of data set [3] is Klebsiella pneumoniae. The experiment in a line: Inhibition of OXA-48 in Klebsiella pneumoniae assessed as meropenem antibacterial activity at 4 ug/ml after 16 to 20 hrs by CLSI-based microbroth dilution method (Rvb >= […] ug/ml).
Data set [4] relates to Klebsiella pneumoniae. The experiment in a line: Effect on growth of Klebsiella pneumoniae 11978 expressing OXA-48 after 16 to 20 hrs by CLSI-based microbroth dilution method. To be noted: in vivo. The format is organism-based.
Data set [5] has as its target Matrix metalloproteinase-9 (Homo sapiens, UniProt P14780). The experiment in a line: Inhibition of human MMP9 at 100 uM.
A short description of data set [6]: Inhibition of bacterial KPC-2 using imipenem as substrate preincubated for 15 mins followed by susbtrate addition and measured after 10 mins by spectrophotometric method. Also on record: species or system Bacteria.
In data set [7] the target is Chymotrypsin (Homo sapiens, UniProt Q99895+P17538+P40313+Q6GPI1). The experiment in a line: Inhibition of human chymotrypsin at 100 uM. The format is protein assay.
Data set [8] in a line: Cytotoxicity against mouse 3T3 cells assessed as growth inhibition at 256 ug/ml relative to control. In kind it is cell-based. The following applies: NIH3T3 cells, read-out: Activity.
Data set [9] has as its system Escherichia coli. The experiment in a line: Inhibition of TEM/CTX-M/SHV/Cephalosporinase in Escherichia coli CH1 assessed as cefepime antibacterial activity at 4 ug/ml after 16 to 20 hrs by CLSI-based microbroth dilution method (Rvb > […] ug/ml).
Data set [10] deals with Beta-lactamase VIM-2 (Pseudomonas aeruginosa) (UniProt Q9K2N0). The experiment in a line: Inhibition of VIM-2 in Pseudomonas aeruginosa assessed as meropenem antibacterial activity at 4 ug/ml after 16 to 20 hrs by CLSI-based microbroth dilution method (Rvb >= […] ug/ml).
In data set [11] the test system is Pseudomonas aeruginosa. The experiment in a line: Effect on growth of Pseudomonas aeruginosa Ps296 AmpC/VIM-2/TEM-1 after 16 to 20 hrs by CLSI-based microbroth dilution method. In kind it is organism-based. To be noted: in vivo.
Data set [12] deals with Neutrophil elastase (Homo sapiens, UniProt P08246). The experiment in a line: Inhibition of human neutrophil elastase 2 at 100 uM.
Sequence of Neutrophil elastase (P08246 whole entry): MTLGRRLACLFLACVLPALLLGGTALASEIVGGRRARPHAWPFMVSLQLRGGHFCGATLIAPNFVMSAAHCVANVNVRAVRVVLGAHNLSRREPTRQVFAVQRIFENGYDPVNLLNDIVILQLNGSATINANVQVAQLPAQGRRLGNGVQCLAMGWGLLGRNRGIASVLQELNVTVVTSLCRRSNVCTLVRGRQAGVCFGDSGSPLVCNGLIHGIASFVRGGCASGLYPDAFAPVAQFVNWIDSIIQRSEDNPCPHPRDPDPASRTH
The subject of data set [13] is Klebsiella aerogenes. The experiment in a line: Effect on growth of Enterobacter aerogenes 188548 expressing AmpC after 16 to 20 hrs by CLSI-based microbroth dilution method. In kind it is organism-based. The following applies: in vivo.
Data set [14] deals with Escherichia coli. The experiment in a line: Inhibition of TEM/CTX-M/SHV/Cephalosporinase in Escherichia coli EC1552 assessed as cefepime antibacterial activity at 4 ug/ml after 16 to 20 hrs by CLSI-based microbroth dilution method (reference value: […] ug/ml).
Data set [15] in a line: Inhibition of bacterial OXA-48 using nitrocefin as substrate preincubated for 15 mins followed by susbtrate addition and measured after 10 mins by spectrophotometric method. Also on record: species or system Bacteria.
In data set [16] the test system is Staphylococcus aureus. The experiment in a line: Effect on growth of wild type Staphylococcus aureus ATCC 29213 after 16 to 20 hrs by CLSI-based microbroth dilution method. In kind it is organism-based.
Data set [17] concerns the target Cytochrome P450 1A2 (Homo sapiens, UniProt P05177). The experiment in a line: Inhibition of human CYP1A2 at 100 uM. In kind it is ADME.
The test system of data set [18] is Klebsiella pneumoniae. The experiment in a line: Effect on growth of wild type Klebsiella pneumoniae CI 09 after 16 to 20 hrs by CLSI-based microbroth dilution method. The format is organism-based.
For data set [19], the system named is Klebsiella pneumoniae. The experiment in a line: Inhibition of KPC/Cephalosporinase in Klebsiella pneumoniae 664-1 assessed as cefepime antibacterial activity at 4 ug/ml after 16 to 20 hrs by CLSI-based microbroth dilution method (Rvb > […] ug/ml).
Data set [20] has as its system Klebsiella pneumoniae. The experiment in a line: Inhibition of TEM/CTX-M/SHV/KPC in Klebsiella pneumoniae 964-2 assessed as cefepime antibacterial activity at 4 ug/ml after 16 to 20 hrs by CLSI-based microbroth dilution method (Rvb > […] ug/ml).

Sequence of Cytochrome P450 1A2 (P05177 whole entry): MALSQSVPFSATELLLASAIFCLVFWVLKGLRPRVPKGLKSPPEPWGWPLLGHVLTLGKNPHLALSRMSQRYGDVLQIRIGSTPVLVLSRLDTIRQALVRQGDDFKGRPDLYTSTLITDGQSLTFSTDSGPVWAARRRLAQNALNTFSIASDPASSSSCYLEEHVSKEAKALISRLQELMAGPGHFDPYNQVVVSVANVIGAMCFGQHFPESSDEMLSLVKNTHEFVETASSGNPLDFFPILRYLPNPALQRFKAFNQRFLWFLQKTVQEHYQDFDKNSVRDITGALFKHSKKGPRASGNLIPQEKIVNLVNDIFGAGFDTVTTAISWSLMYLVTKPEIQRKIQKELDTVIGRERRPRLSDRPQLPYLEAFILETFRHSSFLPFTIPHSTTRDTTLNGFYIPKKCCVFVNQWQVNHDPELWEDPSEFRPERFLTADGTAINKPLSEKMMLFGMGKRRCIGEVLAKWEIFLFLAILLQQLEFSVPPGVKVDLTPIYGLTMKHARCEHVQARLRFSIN
Sequence of Matrix metalloproteinase-9 (P14780 whole entry): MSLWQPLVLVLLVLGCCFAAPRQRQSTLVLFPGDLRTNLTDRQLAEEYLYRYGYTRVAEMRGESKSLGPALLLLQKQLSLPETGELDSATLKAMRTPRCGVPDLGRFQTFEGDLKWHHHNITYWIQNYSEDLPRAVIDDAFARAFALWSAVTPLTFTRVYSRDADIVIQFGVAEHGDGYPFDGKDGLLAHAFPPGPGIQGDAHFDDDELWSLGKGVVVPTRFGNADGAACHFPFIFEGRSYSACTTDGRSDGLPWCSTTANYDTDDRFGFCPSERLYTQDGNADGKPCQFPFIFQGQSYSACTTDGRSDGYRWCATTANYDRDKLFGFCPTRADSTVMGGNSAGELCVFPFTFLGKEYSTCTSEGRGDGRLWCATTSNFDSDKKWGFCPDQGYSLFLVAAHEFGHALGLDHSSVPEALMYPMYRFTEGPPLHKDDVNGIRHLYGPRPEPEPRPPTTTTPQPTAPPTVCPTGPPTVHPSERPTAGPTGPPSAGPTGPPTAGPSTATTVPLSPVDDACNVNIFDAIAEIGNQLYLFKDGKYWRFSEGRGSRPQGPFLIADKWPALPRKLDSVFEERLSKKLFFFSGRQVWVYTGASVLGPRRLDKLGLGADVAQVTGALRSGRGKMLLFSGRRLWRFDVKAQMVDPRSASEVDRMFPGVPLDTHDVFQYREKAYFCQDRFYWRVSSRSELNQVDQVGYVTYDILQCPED

The pIC50 is the negative decadic logarithm of the IC50, by convention in mol/L. A high value points to a low IC50. For `NCCN[C@H]1CC[C@H](CC(=O)N[C@H]2Cc3cccc(C(=O)O)c3OB2O)CC1`, the MIC in data set [1] is more than 128 mg/L; in data set [3], 2 mg/L (≈ 5.14 µM); in data set [4], more than 128 mg/L; in data set [9], less than 0.125 mg/L; in data set [10], 0.06 mg/L (≈ 0.154 µM); in data set [11], more than 128 mg/L. Moreover, the MIC was more than 128 mg/L in [13]; 0.5 mg/L (≈ 1.28 µM) in data set [14]; more than 128 mg/L in [16]; more than 128 mg/L in [18]; 0.25 mg/L (≈ 0.642 µM) in data set [19]; less than 0.125 mg/L in [20]. In addition, the Activity in data set [2] was determined as 4.87 log10CFU. The “inhibition (INH)” value in data set [5], in [7], in data set [12] and in data set [17] was “Not Active” in each case. Besides, the values for the negative logarithm of the IC50 (pIC50) in data set [6] and in data set [15] were 7.52 and 6.38, respectively. In [8], the inhibition at 256 ug/ml was less than 20%.
